Values joined by “and” are separate entries in the source; they are usually repeats but may differ in a detail not shown here. Identical values can stand only once. Inconclusive results and toxic doses are left out. Peptide text beside a SMILES is read from it.
Test system: P388 leukemia ip, CD2F1 mice, survival T/C
Experiment: NCI In Vivo Anticancer Drug Screen. Data for tumor model P388 Leukemia (intraperitoneal) in CD2F1 (CDF1) mice
Settings: endpoint: median survival time, higher = longer survival
Procedure, shortened: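 Mice carrying the transplanted tumor received test compound or vehicle. Survival was recorded in each group, and the value is the treated-group measurement divided by that of the vehicle-treated control group.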

[1] = dose: 12.5 mg/kg/injection, schedule: Q01DX009 (ip), vehicle: saline with Tween-80
[2] = dose: 100.0 mg/kg/injection, schedule: Q01DX005 (ip), vehicle: saline
[3] = dose: 50.0 mg/kg/injection, schedule: Q01DX005 (ip), vehicle: Klucel (hydroxypropylcellulose) (HPC)
[4] = dose: 50.0 mg/kg/injection, schedule: Q01DX009 (ip), vehicle: saline with Tween-80
[5] = dose: 100.0 mg/kg/injection, schedule: Q01DX009 (ip), vehicle: saline with Tween-80
[6] = dose: 100.0 mg/kg/injection, schedule: Q04DX003 (ip), vehicle: saline
[7] = dose: 200.0 mg/kg/injection, schedule: Q04DX003 (ip), vehicle: saline
[8] = dose: 400.0 mg/kg/injection, schedule: Q04DX003 (ip), vehicle: saline
[9] = dose: 60.0 mg/kg/injection, schedule: Q01DX005 (ip), vehicle: saline with Tween-80
[10] = dose: 120.0 mg/kg/injection, schedule: Q01DX005 (ip), vehicle: saline with Tween-80
[11] = dose: 240.0 mg/kg/injection, schedule: Q01DX005 (ip), vehicle: saline with Tween-80

SMILES: C=C(C)C(=NC(C)(C)C)Nc1ccccc1
- T/C (dose: 10.0 mg/kg/injection, schedule: Q01DX005 (ip), vehicle: saline): 119 % of control
- T/C (dose: 12.5 mg/kg/injection, schedule: Q01DX009 (ip), vehicle: Klucel (hydroxypropylcellulose) (HPC)): 121 % of control
- T/C [1]: 116 % of control
- T/C (dose: 25.0 mg/kg/injection, schedule: Q01DX009 (ip), vehicle: Klucel (hydroxypropylcellulose) (HPC)): 106 % of control
- T/C (dose: 50.0 mg/kg/injection, schedule: Q01DX009 (ip), vehicle: Klucel (hydroxypropylcellulose) (HPC)): 107 % of control
- T/C [2]: 152 % of control
- T/C (dose: 100.0 mg/kg/injection, schedule: Q01DX009 (ip), vehicle: Klucel (hydroxypropylcellulose) (HPC)): 107 % of control

SMILES: CCCCCCCC(=O)NN(Cn1c(=S)sc2ccccc21)Cn1c(=S)sc2ccccc21
- T/C [3]: 96 % of control
- T/C (dose: 100.0 mg/kg/injection, schedule: Q01DX005 (ip), vehicle: Klucel (hydroxypropylcellulose) (HPC)): 88 % of control
- T/C (dose: 200.0 mg/kg/injection, schedule: Q01DX005 (ip), vehicle: Klucel (hydroxypropylcellulose) (HPC)): 88 % of control

SMILES: CC(=O)O[C@@H]1C(=O)C=C(C)[C@@H]2[C@@H](OC(=O)C=C(C)C)[C@H]3OC(=O)C[C@H]4[C@@H](C)[C@@H](O)[C@]5(O)OC[C@]34[C@H]5[C@@]12C
- T/C (dose: 0.5 mg/kg/injection, schedule: Q01DX009 (ip), vehicle: distilled water + Tween-80): 118 % of control
- T/C (dose: 1.0 mg/kg/injection, schedule: Q01DX009 (ip), vehicle: distilled water + Tween-80): 121 % of control
- T/C (dose: 10.0 mg/kg/injection, schedule: Q01DX009 (ip), vehicle: distilled water + Tween-80): 177 % of control

SMILES: O=C(O)c1oc2ccccc2c1C=C(c1ccccc1)c1ccccc1
- T/C [4]: 101 % of control
- T/C [5]: 101 % of control

SMILES: O=c1c(N=Nc2nc3ccccc3s2)c(O)n(-c2ccccc2)c(=S)n1-c1ccccc1
- T/C (dose: 60.0 mg/kg/injection, schedule: Q01DX005 (ip), vehicle: saline): 109 % of control
- T/C (dose: 120.0 mg/kg/injection, schedule: Q01DX005 (ip), vehicle: saline): 100 % of control
- T/C (dose: 240.0 mg/kg/injection, schedule: Q01DX005 (ip), vehicle: saline): 106 % of control

SMILES: COc1ccc(C2OC3=C(Nc4ccc(Cl)cc4N3)C2=O)cc1 (stereo unspecified)
- T/C (dose: 30.0 mg/kg/injection, schedule: Q01DX005 (ip), vehicle: Klucel (hydroxypropylcellulose) (HPC)): 98 % of control
- T/C (dose: 60.0 mg/kg/injection, schedule: Q01DX005 (ip), vehicle: Klucel (hydroxypropylcellulose) (HPC)): 94 % of control
- T/C (dose: 120.0 mg/kg/injection, schedule: Q01DX005 (ip), vehicle: Klucel (hydroxypropylcellulose) (HPC)): 93 % of control and 97 % of control
- T/C (dose: 240.0 mg/kg/injection, schedule: Q01DX005 (ip), vehicle: Klucel (hydroxypropylcellulose) (HPC)): 98 % of control

SMILES: CC(C)CCNc1ncnc2c1cnn2C
- T/C (dose: 25.0 mg/kg/injection, schedule: Q04DX003 (ip), vehicle: saline): 95 % of control
- T/C (dose: 50.0 mg/kg/injection, schedule: Q04DX003 (ip), vehicle: saline): 100 % of control
- T/C (dose: 100.0 mg/kg/injection, schedule: Q04DX003 (ip), vehicle: saline with Tween-80): 109 % of control

SMILES: CC/C(=N\NS(=O)(=O)c1ccc(C)cc1)c1ccc(C)cc1
- T/C [6]: 100 % of control
- T/C [7]: 98 % of control
- T/C [8]: 98 % of control

SMILES: c1ccc(CNSC(c2ccccc2)(c2ccccc2)c2ccccc2)cc1
- T/C (dose: 100.0 mg/kg/injection, schedule: Q04DX002 (ip), vehicle: saline with Tween-80): 101 % of control
- T/C (dose: 200.0 mg/kg/injection, schedule: Q04DX002 (ip), vehicle: saline with Tween-80): 102 % of control
- T/C (dose: 400.0 mg/kg/injection, schedule: Q04DX002 (ip), vehicle: saline with Tween-80): 92 % of control

SMILES: CCOC(=O)C1=C(C)N[C@H](c2ccccc2[N+](=O)[O-])N[C@H]1c1ccccc1[N+](=O)[O-]
- T/C (dose: 12.5 mg/kg/injection, schedule: Q01DX005 (ip), vehicle: Klucel (hydroxypropylcellulose) (HPC)): 105 % of control
- T/C (dose: 25.0 mg/kg/injection, schedule: Q01DX005 (ip), vehicle: Klucel (hydroxypropylcellulose) (HPC)): 94 % of control
- T/C [3]: 88 % of control and 92 % of control

SMILES: CCN(CC)C(=O)CSc1ccc(Cl)nn1
- T/C [4]: 97 % of control
- T/C [5]: 98 % of control
- T/C (dose: 200.0 mg/kg/injection, schedule: Q01DX009 (ip), vehicle: saline with Tween-80): 94 % of control

SMILES: CCCCCCCCCCCCCCCCCC(=O)[O][Hg][c]1ccccc1
- T/C (dose: 2.5 mg/kg/injection, schedule: Q04DX003 (ip), vehicle: Klucel (hydroxypropylcellulose) (HPC)): 100 % of control
- T/C (dose: 5.0 mg/kg/injection, schedule: Q04DX003 (ip), vehicle: Klucel (hydroxypropylcellulose) (HPC)): 100 % of control
- T/C (dose: 10.0 mg/kg/injection, schedule: Q04DX003 (ip), vehicle: Klucel (hydroxypropylcellulose) (HPC)): 100 % of control

SMILES: CC(=O)CC(C)=O.CCN(CC)CC[C-]=O.[Pd+2]
- T/C (dose: 0.78 mg/kg/injection, schedule: Q04DX003 (ip), vehicle: propolene glycol): 97 % of control
- T/C (dose: 1.56 mg/kg/injection, schedule: Q04DX003 (ip), vehicle: propolene glycol): 95 % of control
- T/C (dose: 3.13 mg/kg/injection, schedule: Q04DX003 (ip), vehicle: propolene glycol): 97 % of control
- T/C (dose: 6.25 mg/kg/injection, schedule: Q04DX003 (ip), vehicle: propolene glycol): 96 % of control
- T/C (dose: 12.5 mg/kg/injection, schedule: Q04DX003 (ip), vehicle: other): 123 % of control
- T/C (dose: 12.5 mg/kg/injection, schedule: Q04DX003 (ip), vehicle: propolene glycol): 91 % of control
- T/C (dose: 25.0 mg/kg/injection, schedule: Q04DX003 (ip), vehicle: other): 120 % of control

SMILES: NCCCCC(NC(=O)C(Cc1cnc[nH]1)NC(=O)CN)C(=O)O (stereo not drawn) (H-Gly-His-Lys-OH; configuration not given here)
- T/C (dose: 50.0 mg/kg/injection, schedule: Q01DX005 (ip), vehicle: saline): 109 % of control
- T/C [2]: 104 % of control
- T/C (dose: 200.0 mg/kg/injection, schedule: Q01DX005 (ip), vehicle: saline): 100 % of control

SMILES: CC/C(=C(/CC)c1ccc(OCC(=O)N/N=C2\CCC3C4CCc5cc(O)ccc5C4CCC23C)cc1)c1ccc(OCC(=O)N/N=C2/CCC3C4CCc5cc(O)ccc5C4CCC23C)cc1 (stereo unspecified)
- T/C (dose: 3.12 mg/kg/injection, schedule: Q01DX001 (ip), vehicle: Klucel (hydroxypropylcellulose) (HPC)): 100 % of control
- T/C (dose: 6.25 mg/kg/injection, schedule: Q01DX001 (ip), vehicle: Klucel (hydroxypropylcellulose) (HPC)): 102 % of control
- T/C (dose: 12.5 mg/kg/injection, schedule: Q01DX001 (ip), vehicle: Klucel (hydroxypropylcellulose) (HPC)): 97 % of control
- T/C (dose: 50.0 mg/kg/injection, schedule: Q01DX001 (ip), vehicle: Klucel (hydroxypropylcellulose) (HPC)): 91 % of control
- T/C (dose: 200.0 mg/kg/injection, schedule: Q01DX001 (ip), vehicle: Klucel (hydroxypropylcellulose) (HPC)): 87 % of control

SMILES: O=c1[nH]c2cc(Cl)ccc2nc1/C=C(O)/C=C/c1ccccc1
- T/C [9]: 98 % of control and 89 % of control
- T/C [10]: 95 % of control
- T/C [11]: 89 % of control and 91 % of control

SMILES: O=C1NN=C(c2ccccc2)CS1
- T/C [4]: 98 % of control
- T/C [5]: 101 % of control

SMILES: O=C1CSC(=S)N1c1ccc2c(c1)OCO2
- T/C [9]: 92 % of control
- T/C [10]: 90 % of control
- T/C [11]: 90 % of control

SMILES: O=C1CSCC(=O)OCCOCCOCCOCCO1
- T/C [6]: 100 % of control
- T/C [7]: 101 % of control
- T/C [8]: 100 % of control

SMILES: CC(C)CC([NH-])C(=O)O.[C-]#[O+].[C-]#[O+].[Rh] (stereo unspecified)
- T/C (dose: 6.25 mg/kg/injection, schedule: Q01DX009 (ip), vehicle: saline with Tween-80): 113 % of control
- T/C [1]: 115 % of control
- T/C (dose: 25.0 mg/kg/injection, schedule: Q01DX009 (ip), vehicle: saline with Tween-80): 109 % of control

SMILES: O=c1c(F)cn(C(c2ccccc2)c2ccccc2)c(=O)n1C(c1ccccc1)c1ccccc1
- T/C (dose: 12.5 mg/kg/injection, schedule: Q01DX009 (ip), vehicle: suspension in saline): 101 % of control
- T/C (dose: 18.75 mg/kg/injection, schedule: Q01DX009 (ip), vehicle: suspension in saline): 115 % of control
- T/C (dose: 25.0 mg/kg/injection, schedule: Q01DX009 (ip), vehicle: suspension in saline): 106 % of control
- T/C (dose: 37.5 mg/kg/injection, schedule: Q01DX009 (ip), vehicle: suspension in saline): 97 % of control
- T/C (dose: 50.0 mg/kg/injection, schedule: Q01DX009 (ip), vehicle: suspension in saline): 100 % of control
- T/C (dose: 75.0 mg/kg/injection, schedule: Q01DX009 (ip), vehicle: suspension in saline): 101 % of control and 115 % of control
- T/C (dose: 150.0 mg/kg/injection, schedule: Q01DX009 (ip), vehicle: suspension in saline): 97 % of control
